Experimental data published in patent US7709516B2, “Helix 12 directed non-steroidal antiandrogens” (Endorecherche, Inc., priority 2005, dated 2010).
Like-named read-outs stand apart in the source and are kept apart here.

Key:
Human Androgen Receptor = molecular target: T1, Human Androgen Receptor (Homo sapiens, UniProt P10275); experiment: Androgen receptor binding assay ([3H]R1881, HAP) in cytosol of HEK-293 cells transfected with hAR; details: relative to R1881 = 100, transfected cells
T1 sequence (P10275 1-920): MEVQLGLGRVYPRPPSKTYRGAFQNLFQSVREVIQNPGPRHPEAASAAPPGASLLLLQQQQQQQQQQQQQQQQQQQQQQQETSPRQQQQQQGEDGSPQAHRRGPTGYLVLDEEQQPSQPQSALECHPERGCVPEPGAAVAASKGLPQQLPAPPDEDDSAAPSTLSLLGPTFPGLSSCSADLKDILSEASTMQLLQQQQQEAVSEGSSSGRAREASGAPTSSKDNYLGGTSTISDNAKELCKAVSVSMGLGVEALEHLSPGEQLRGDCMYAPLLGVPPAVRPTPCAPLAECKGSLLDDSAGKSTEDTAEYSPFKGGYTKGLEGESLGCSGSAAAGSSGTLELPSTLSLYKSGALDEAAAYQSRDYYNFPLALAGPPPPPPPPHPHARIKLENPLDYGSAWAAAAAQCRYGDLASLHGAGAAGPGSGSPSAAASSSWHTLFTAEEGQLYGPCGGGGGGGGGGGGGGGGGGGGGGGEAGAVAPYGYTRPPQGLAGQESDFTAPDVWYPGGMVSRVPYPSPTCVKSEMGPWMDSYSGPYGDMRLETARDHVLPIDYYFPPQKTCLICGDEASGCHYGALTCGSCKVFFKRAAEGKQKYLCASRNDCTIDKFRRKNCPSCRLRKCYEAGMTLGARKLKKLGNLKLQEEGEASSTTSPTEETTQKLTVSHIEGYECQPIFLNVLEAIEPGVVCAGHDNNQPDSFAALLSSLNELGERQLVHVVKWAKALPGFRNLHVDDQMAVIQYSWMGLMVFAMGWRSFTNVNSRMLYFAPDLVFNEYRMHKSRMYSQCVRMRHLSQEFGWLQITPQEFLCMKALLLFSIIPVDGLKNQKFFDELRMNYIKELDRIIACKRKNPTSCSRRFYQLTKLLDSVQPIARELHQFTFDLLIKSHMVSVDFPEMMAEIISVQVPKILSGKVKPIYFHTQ

[1] = tested on: rat prostate, seminal vesicle, levator ani muscle; experiment: Systemic antiandrogenic activity in orchidectomized immature male rats with DHT implant; format: in vivo; details: Rattus norvegicus, 168 h
[2] = tested on: Shionogi mouse mammary carcinoma cells; experiment: Androgenic/antiandrogenic activity: inhibition of DHT-stimulated Shionogi cell number; format: cell-based; details: Mus musculus, DHT-stimulated Shionogi cell number
[3] = read-out: Lev Ani % inhibition, Table 1, rat +DHT, s.c. or p.o. (route not marked), levator ani, 0.5 mg/animal daily 7 days
[4] = read-out: Prostate % inhibition, Table 1, rat +DHT, s.c. or p.o. (route not marked in cell), 0.5 mg/animal daily 7 days
[5] = read-out: SV % inhibition, Table 1, rat +DHT, s.c. or p.o. (route not marked), seminal vesicle, 0.5 mg/animal daily 7 days
[6] = read-out: Shionogi Antiandrogenic Activity IC50, Table 1

Row | Compound | Human Androgen Receptor Binding (%) RBA R1881 = 100 (Human Androgen Receptor; Table 1) | inhibition in vivo at 0.5 mg [1, 3] | inhibition in vivo at 0.5 mg [1, 4] | inhibition in vivo at 0.5 mg [1, 5] | IC50 [2, 6] | also measured
1 | CCC(CC)NCc1ccc(OCCCN2C(=S)N(c3ccc(C#N)c(C(F)(F)F)c3)C(=O)C2(C)C)cc1 [EM-7144] | 14.0% | 41% | 45% | 61% | 22.5 nM | 
2 | CCNCc1ccc(OCCCN2C(=S)N(c3ccc(C#N)c(C(F)(F)F)c3)C(=O)C2(C)C)cc1 [EM-7148] | 12.0% | 75% | 58% | 85% | 6.1 nM | 
3 | CCC(=O)c1ccc(OCCCN2C(=S)N(c3ccc(C#N)c(C(F)(F)F)c3)C(=O)C2(C)C)cc1 [EM-7154] | 64.7% | 6% | 8% | 31% | 20 nM | 
4 | CC(=O)c1ccc(OCCCN2C(=S)N(c3ccc(C#N)c(C(F)(F)F)c3)C(=O)C2(C)C)cc1 [EM-7168] | 49.3% | 0% | 14% | 54% | 13 nM | 
5 | CC(NC1CC1)c1ccc(OCCCN2C(=S)N(c3ccc(C#N)c(C(F)(F)F)c3)C(=O)C2(C)C)cc1 (centres unmarked) [EM-7169] | 21.7% | 31% | 45% | 72% | 11 nM | 
6 | CN(C)Cc1ccc(OCCCN2C(=S)N(c3ccc(C#N)c(C(F)(F)F)c3)C(=O)C2(C)C)cc1 [EM-7192] | 15.6% | 0% | 53% | 75% | 11.5 nM | 
7 | CC(C)NC(=O)c1ccc(OCCCN2C(=S)N(c3ccc(C#N)c(C(F)(F)F)c3)C(=O)C2(C)C)cc1 [EM-7202] | 37.0% | 0% | 26% | 63% | 36.5 nM | 
8 | CCC(NC(C)C)c1ccc(OCCCN2C(=S)N(c3ccc(C#N)c(C(F)(F)F)c3)C(=O)C2(C)C)cc1 (centres unmarked) [EM-7203] | 48.4% | 4% | 37% | 66% | 8.9 nM | 
9 | CCC(C)NCc1ccc(OCCCN2C(=S)N(c3ccc(C#N)c(C(F)(F)F)c3)C(=O)C2(C)C)cc1 (centres unmarked) [EM-7225] | 15.3% | 14% | 52% | 71% | 12.5 nM | 
10 | CCCNCc1ccc(OCCCN2C(=S)N(c3ccc(C#N)c(C(F)(F)F)c3)C(=O)C2(C)C)cc1 [EM-7227] | 18.0% | 1% | 35% | 77% | 10.8 nM | 
11 | CC1(C)C(=O)N(c2ccc(C#N)c(C(F)(F)F)c2)C(=S)N1CCCOc1ccc(CN2CCCC2)cc1 [EM-7232, 4-{4,4-Dimethyl-5-oxo-3-[3-(4-pyrrolidin-1-ylmethyl-phenoxy)-]-2-thioxo-imidazolidin-1-yl}-2-trifluoro-benzonitrile] | 19.0% | 70% | 45% | 84% | 7.6 nM | 
12 | CC(C)N(C)Cc1ccc(OCCCN2C(=S)N(c3ccc(C#N)c(C(F)(F)F)c3)C(=O)C2(C)C)cc1 [EM-7233] | 15.0% | 70% | 54% | 82% | 12 nM | 
13 | CC(C)NC(C)c1ccc(OCCCN2C(=S)N(c3ccc(C#N)c(C(F)(F)F)c3)C(=O)C2(C)C)cc1 (centres unmarked) [EM-7234, 4-(3-{3-[4-(1-Isopropylamino-ethyl)-phenoxy]-propyl}-4,4-dimethyl-5-oxo-2-thioxo-imidazolidin-1-yl)-2-tifluoromethyl-benzonitile] | 30.4% | 75% | 50% | 82% | 6.2 nM | 
14 | CCN(C)Cc1ccc(OCCCN2C(=S)N(c3ccc(C#N)c(C(F)(F)F)c3)C(=O)C2(C)C)cc1 [EM-7242] | 18.0% | 55% | 41% | 72% | 9.8 nM | 
15 | CC(c1ccc(OCCCN2C(=S)N(c3ccc(C#N)c(C(F)(F)F)c3)C(=O)C2(C)C)cc1)N(C)C (centres unmarked) [EM-7243] | 14.0% | 73% | 34% | 72% | 14 nM | 
16 | CC1(C)C(=O)N(c2ccc(C#N)c(C(F)(F)F)c2)C(=S)N1CCCOc1ccc(CN2CCOCC2)cc1 [EM-7248] | 32.4% | 44% | 37% | 62% | 19 nM | 
17 | COC(=O)c1ccc(OCCCN2C(=S)N(c3ccc(C#N)c(C(F)(F)F)c3)C(=O)C2(C)C)cc1 [EM-7260] | 93.3% | 0% | 25% | 47% | 17 nM | 
18 | Cc1cc(CNC(C)C)ccc1OCCCN1C(=S)N(c2ccc(C#N)c(C(F)(F)F)c2)C(=O)C1(C)C [EM-7297] | 59.0% | 31% | 29% | 37% | 6.3 nM | 
19 | CN(C)Cc1ccc(OCCCN2C(=O)N(c3ccc(C#N)c(C(F)(F)F)c3)C(=O)C2(C)C)cc1 [EM-7334, 4-{3-[3-(4-Dimethylaminomethyl-phenoxy)-propyl]-4,4-dimethyl-2,5-dioxo-imidazolidin-1-yl}-2-trifluoromethyl-benzonitrile] | 0.5% |  | 14% | 26% |  | IC50 ([2]; Table 1, read-out: Shionogi Antiandrogenic Activity IC50): 118 nM
20 | CC1(C)C(=O)N(c2ccc(C#N)c(C(F)(F)F)c2)C(=S)N1CCCOc1ccc(CN2CCC(O)C2)cc1 (centres unmarked) [EM-7365] | 24.0% | 19% | 22% | 43% | 6 nM | 
21 | Cc1cc(CN2CCOCC2)ccc1OCCCN1C(=S)N(c2ccc(C#N)c(C(F)(F)F)c2)C(=O)C1(C)C [EM-7366] | 209.0% | 16% | 26% | 70% | 22 nM | 
22 | CC1(C)C(=O)N(c2ccc(C#N)c(C(F)(F)F)c2)C(=S)N1CCCOc1ccc(CN2CCC(=O)C2)cc1 [EM-7371] | 53.0% | 21% | 16% | 48% | 15 nM | 
23 | Cc1cc(CN2CCCC2)ccc1OCCC1(O)CCN(c2ccc(C#N)c(C(F)(F)F)c2)CC1 [EM-7657] |  |  |  |  |  | Human Androgen Receptor Binding (%) RBA R1881 = 100 (Human Androgen Receptor; Table 2): 3.0%; inhibition in vivo at 0.5 mg ([1]; read-out: Lev Ani % inhibition, Table 2, rat +DHT, s.c. or p.o. (route not marked), levator ani, 0.5 mg/animal daily 7 days): 55%; inhibition in vivo at 0.5 mg ([1]; read-out: Prostate % inhibition, Table 2, rat +DHT, s.c. or p.o. (route not marked), 0.5 mg/animal daily 7 days): 24%; inhibition in vivo at 0.5 mg ([1]; read-out: SV % inhibition, Table 2, rat +DHT, s.c. or p.o. (route not marked), seminal vesicle, 0.5 mg/animal daily 7 days): 41%; IC50 ([2]; read-out: Shionogi Antiandrogenic Activity IC50, Table 2): 22 nM
24 | Cc1cc(CN2CCOCC2)ccc1OCCC1(O)CCN(c2ccc(C#N)c3ccccc23)CC1 [EM-7676] |  |  |  |  |  | Human Androgen Receptor Binding (%) RBA R1881 = 100 (Human Androgen Receptor; Table 2): 0.3%; inhibition in vivo at 0.5 mg ([1]; read-out: Lev Ani % inhibition): 0%; inhibition in vivo at 0.5 mg ([1]; read-out: Prostate % inhibition): 0%; inhibition in vivo at 0.5 mg ([1]; read-out: SV % inhibition): 3%; IC50 ([2]; Table 2, read-out: Shionogi Antiandrogenic Activity IC50): 147 nM
